From US8183237B2, “Benzenesulfonanilide compounds suitable for treating disorders that respond to modulation of the serotonin 5-HT6 receptor” (Abbott Laboratories, priority 2009, dated 2012)
pKd, pKi: −log10 of the molar value. Where a name gives a salt, the structure may show the parent alone. Read-outs that look alike come from different tables or passages of the source.

Assays:
h-5-HT6 receptor = target: T1, h-5-HT6 receptor (Homo sapiens, UniProt P50406); experiment: 5-HT6 receptor binding assay (displacement of [3H]-LSD)
T1 construct: expressed in transfected cells; host or cells: HEK293
Procedure: Displacement of radioligands binding to the following cloned human receptors
(§1) 1. Preparation of Membranes by Ultrasonic Treatment and Differential Centrifugation
Cells from stable clonal cell lines expressing the corresponding receptor (5-HT6, α1-adrenergic, dopamine D2 or histamine H1 receptors) were washed with PBS (w/o Ca^++, Mg^++) and harvested in PBS with 0.02% EDTA. The cells were collected by centrifugation at 500 g for 10 min. at 4° C., washed with PBS and centrifuged (500 g, 10 min. 4° C.). The pellets were stored at −80° C. until use. For membrane preparation, the thawed cell pellet was resuspended in ice-cold sucrose buffer (0.25 M sucrose, 10 mM Hepes (pH 7.4), 1 mM Phenylmethylsulfonyl fluoride (PMSF) in DMSO, 5 μg/ml Pepstatin-A, 3 mM EDTA, 0.025% Bacitracin) and homogenized with a Branson Sonifier W-250 (Settings: Timer 4; Output Control 3; Duty Cycle constant; 2 to 3 cycles). Cell disruption was checked with the aid of a microscope. Remaining unbroken cells were pelleted at 1.000 g for 10 min. at 4° C. The sucrose buffer supernatant was then centrifuged at 60.000 g for 1 h at 4° C. (Beckman Ultrazentrifuge XL 80). The pellet was resuspended in 30 ml ice-cold Tris buffer (20 mM TRIS (pH 7.4), 5 μg/ml Pepstatin A, 0.1 mM PMSF, 3 mM EDTA) by pipetting through a 10 ml serological pipet and centrifuged for 1 h at 4° C. at 60.000 g. A final resuspension was performed in a small volume of ice-cold Tris buffer (see above) by pressing through a serological pipet followed by ultrasonic treatment with a Branson Sonifier W-250 (Settings: Timer 1; Output Control 3; Duty Cycle constant; 1 cycle). Protein concentration was determined (BCA-Kit; Pierce) and aliquots stored at −80° C. or in liquid nitrogen for long-term storage.
(§2) 2. Receptor Binding Experiments
All receptor binding experiments were carried out in the corresponding assay buffer in a total volume of 200 μl in the presence of various concentrations of test compound (10^−5 M to 10^−9 M, tenfold serial dilution, duplicate determinations). The assays were terminated by filtration on polyethylenimine (PEI 0.1% or 0.3%) presoaked Packard Unifilter Plates (GF/C or GF/B) with a Tomtec MachIII U 96 well-plate harvester. After the plates had been dried for 2 h at 55° C. in a drying chamber scintillation cocktail (BetaPlate Scint; PerkinElmer) was added. Radioactivity was measured in a Microbeta Trilux two hours after the addition of the scintillation mixture. Data derived from liquid scintillation counting were analysed by iterative non-linear regression analysis with the use of the Statistical Analysis System (SAS): a program similar to “LIGAND” as described by Munson and Rodbard (Analytical Biochemistry 107, 220-239 (1980).
a) 5-HT6 Receptor Binding Assay
HEK293 cells stably expressing the h-5-HT6 receptor (NCBI Reference Sequence XM 001435) were cultured in RPMI1640 medium supplemented with 25 mM HEPES, 10% fetal calf serum and 1-2 mM glutamine. The membrane preparation was performed as described in section 1. […] Non-specific binding was defined with 1 μM methiothepin. The binding reaction was carried out for 3.5 h at room temperature. […]
Data derived from liquid scintillation counting were analyzed by iterative non-linear regression analysis with the use of the Statistical Analysis System (SAS): a program similar to “LIGAND” as described by Munson and Rodbard (Anal. Biochem. 1980, 107, 220-239). […] IC50, nH and Ki values were expressed as geometrical mean.

dopamine D2 receptor = target: T2, dopamine D2 receptor (Homo sapiens, UniProt P14416); experiment: Dopamine D2 receptor binding assay (displacement of [125I]-iodospiperone); conditions: saturation binding experiments, HEK293 D2 membranes
T2 construct: expressed in transfected cells; host or cells: HEK293
Procedure: as §1
The pellets were stored at −80° C. until use. […] (Beckman Ultrazentrifuge XL 80).
as §2
b) Dopamine D2 Receptor Binding Assay
Non-specific binding was defined with 1 μM haloperidol.

[1] = membranes of HEK293 cells stably expressing h-5-HT6 receptor, 1 nM [3H]-LSD, read-out: Ki (5HT6)

T1 sequence (P50406 whole entry): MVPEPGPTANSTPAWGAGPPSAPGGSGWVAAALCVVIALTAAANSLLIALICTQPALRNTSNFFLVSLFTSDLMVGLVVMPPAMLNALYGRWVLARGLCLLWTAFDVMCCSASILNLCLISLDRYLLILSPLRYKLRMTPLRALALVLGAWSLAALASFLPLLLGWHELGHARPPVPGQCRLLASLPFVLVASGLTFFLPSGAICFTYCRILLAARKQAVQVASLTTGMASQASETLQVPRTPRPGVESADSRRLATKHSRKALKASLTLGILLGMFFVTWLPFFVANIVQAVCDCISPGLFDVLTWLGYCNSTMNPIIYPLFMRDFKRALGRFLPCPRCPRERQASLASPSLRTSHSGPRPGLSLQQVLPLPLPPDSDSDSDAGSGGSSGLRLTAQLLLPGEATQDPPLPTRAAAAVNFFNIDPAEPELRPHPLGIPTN
T2 sequence (P14416 whole entry): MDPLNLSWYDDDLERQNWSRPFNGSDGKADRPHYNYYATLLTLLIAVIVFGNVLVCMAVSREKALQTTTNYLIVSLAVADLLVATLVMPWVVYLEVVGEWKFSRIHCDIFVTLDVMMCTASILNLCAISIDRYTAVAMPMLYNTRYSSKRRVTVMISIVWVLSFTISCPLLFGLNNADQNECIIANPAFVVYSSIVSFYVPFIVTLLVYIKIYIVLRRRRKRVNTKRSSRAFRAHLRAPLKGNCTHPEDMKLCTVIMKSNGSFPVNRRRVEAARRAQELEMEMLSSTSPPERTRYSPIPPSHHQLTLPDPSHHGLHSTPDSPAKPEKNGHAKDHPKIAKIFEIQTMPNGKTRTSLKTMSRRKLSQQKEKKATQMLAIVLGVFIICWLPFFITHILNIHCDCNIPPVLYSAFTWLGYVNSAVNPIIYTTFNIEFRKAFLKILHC

Molecule	pKi (h-5-HT6 receptor; [1])	further results
Cc1ccc(NS(=O)(=O)c2cccc(OC(F)F)c2)cc1N1CCNCC1 [Example 1, 3-Difluoromethoxy-N-(4-methyl-3-piperazin-1-yl-phenyl)-benzenesulfonamide hydrochloride]		pKi (h-5-HT6 receptor): > 7.70
Cc1ccc(NS(=O)(=O)c2ccccc2OC(F)F)cc1N1CCCN(C)CC1 [Example 5, 2-Difluoromethoxy-N-[4-methyl-3-(4-methyl-[1,4]diazepan-1-yl)-phenyl]-benzenesulfonamide hydrochloride]	> 7.70	
iodospiperone [[^125I]-iodospiperone]		pKd (dopamine D2 receptor): 9.66
Cc1ccc(NS(=O)(=O)c2cccc(OC(F)F)c2)cc1N1CCCNCC1 [Example 4, N-(3-[1,4]Diazepan-1-yl-4-methyl-phenyl)-3-difluoromethoxy-benzenesulfonamide hydrochloride]	> 7.70	

The next lines start with results.

pKi (h-5-HT6 receptor; [1])	Molecule	further results
> 6.60	Cc1ccc(N(C)S(=O)(=O)c2cccc(OC(F)F)c2)cc1N1CCCNCC1 [Example 3, N-(3-[1,4]Diazepan-1-yl-4-methyl-phenyl)-3-difluoromethoxy-N-methyl-benzenesulfonamide hydrochloride]	
> 7.30	Cc1ccc(NS(=O)(=O)c2ccccc2OC(F)F)cc1N1CCCNCC1 [Example 2, N-(3-[1,4]Diazepan-1-yl-4-methyl-phenyl)-2-difluoromethoxy-benzenesulfonamide hydrochloride]	
